Reference: the supplement of paper PMC10307832

Key:
Experiment in all cases: relative viability (nuclei count vs DMSO), 5 days (fraction); higher = more cells survive
[1] = compound: C=C(c1ccc(C(=O)O)cc1)c1cc2c(cc1C)C(C)(C)CCC2(C)C [Bexarotene] + COc1cc2c(Oc3ccc(NC(=O)C4(C(=O)Nc5ccc(F)cc5)CC4)cc3F)ccnc2cc1OCCCN1CCOCC1 [Foretinib] (partner 0.25 µM)
Outline: (§1)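 Nuclei were stained with Hoechst during a one-step fixation (final 0.05% Triton X-100, 1% formaldehyde, 1 ug/ml Hoechst) carried out 5 days after dosing, then counted on 4× images. The cells, lung cancer lines in 1536-well plates, had been dosed by pin tool the day after seeding with one drug alone or a fixed anchor-drug dose plus five library-drug doses (not always all listed) in √10 steps. Relative viability is the nuclei count in treated wells divided by that in vehicle wells, and each value is the median of duplicate plates.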

[2] = compound: C=C(c1ccc(C(=O)O)cc1)c1cc2c(cc1C)C(C)(C)CCC2(C)C [Bexarotene] + Cc1nc(NC(=O)N2CCC[C@H]2C(N)=O)sc1-c1ccnc(C(C)(C)C(F)(F)F)c1 [Alpelisib] (partner 2 µM)
Outline: as §1

[3] = compound: C=C(c1ccc(C(=O)O)cc1)c1cc2c(cc1C)C(C)(C)CCC2(C)C [Bexarotene] + O=C(c1cc(Cc2n[nH]c(=O)c3ccccc23)ccc1F)N1CCN(C(=O)C2CC2)CC1 [Olaparib] (partner 8 µM)
Outline: as §1

[4] = compound: C=C(c1ccc(C(=O)O)cc1)c1cc2c(cc1C)C(C)(C)CCC2(C)C [Bexarotene] + Nc1nc2[nH]cc(CCc3ccc(C(=O)N[C@@H](CCC(=O)O)C(=O)O)cc3)c2c(=O)[nH]1 [Pemetrexed] (partner 0.2 µM)
Outline: as §1

Cell Line	relative viability ([1]; first compound 0.08 µM)	relative viability ([1]; first compound 0.253 µM)	relative viability ([1]; first compound 0.8 µM)	relative viability ([1]; first compound 2.53 µM)	relative viability ([1]; first compound 8 µM)	relative viability ([2]; first compound 0.08 µM)	relative viability ([2]; first compound 0.253 µM)	relative viability ([2]; first compound 0.8 µM)	relative viability ([2]; first compound 2.53 µM)	relative viability ([2]; first compound 8 µM)	relative viability ([3]; first compound 0.08 µM)	relative viability ([3]; first compound 0.253 µM)	relative viability ([3]; first compound 0.8 µM)	relative viability ([3]; first compound 2.53 µM)	relative viability ([3]; first compound 8 µM)	relative viability ([4]; first compound 0.08 µM)	relative viability ([4]; first compound 0.253 µM)	relative viability ([4]; first compound 0.8 µM)	relative viability ([4]; first compound 2.53 µM)	relative viability ([4]; first compound 8 µM)
H3255	1.01	0.821	0.906	0.779	0.748	0.655	0.789	0.715	0.862	0.72	0.603	0.692	0.659	0.642	0.654	0.585	0.577	0.551	0.554	0.558
EPLC-272H	0.666	0.555	0.75	0.588	0.737	0.9	0.97	0.884	0.901	0.911	0.824	0.773	0.641	0.758	0.845	0.27	0.346	0.218	0.395	0.325
PC-3 [JPC-3]	1.13	0.949	0.941	0.99	0.891	1.06	1.08	0.815	0.984	0.932	1.01	1.1	1.02	1.06	0.938	1.07	1.05	1.05	0.541	1
NCI-H1793	0.732	0.813	0.763	0.629	0.676	0.956	0.81	0.81	0.727	0.824	1.06	0.966	0.787	0.903	0.695	0.972	0.828	0.79	0.845	0.852
EKVX	0.666	0.915	0.925	0.822	0.711	0.889	0.855	0.781	0.849	0.76	0.838	0.993	0.947	0.946	0.948	0.423	0.54	0.355	0.43	0.362
ChaGo-K-1	1.07	0.963	0.976	0.936	0.919						0.411	0.413	0.408	0.395	0.42	0.274	0.249	0.251	0.253	0.275
NCI-H23	0.888	1.06	0.921	1.01	0.785	0.812	0.782	0.551	0.829	0.656	0.344	0.341	0.289	0.294	0.3	0.948	0.715	0.669	0.626	0.686
EMC-BAC-2	0.912	1.09	0.998	0.964	0.993	0.748	0.735	0.705	0.73	0.719	0.522	0.514	0.504		0.515	0.44	0.441	0.394		0.419
LOU-NH91	0.88	0.89	0.84	0.878	0.786	0.633	0.653	0.601	0.632	0.616	0.905	0.932	0.875	0.841	0.823	0.449	0.43	0.399	0.399	0.386
LU99A	0.908	0.865	0.898	0.931	0.809	0.592	0.57	0.535	0.475	0.61	0.276	0.306	0.277	0.311	0.273	0.19	0.194	0.206	0.189	0.171
NCI-H1395	1.07	1.02	1.04	0.949	1.09	1.18	1.06	0.93	1.03	1.08	0.441	0.543	0.476	0.459	0.504	0.885	0.929	0.808	0.9	0.931
NCI-H460	1.1	0.99	0.976	1.02	1.01	0.654	0.733	0.539	0.596	0.519	0.54	0.568	0.409	0.536	0.492	0.062	0.0605	0.058	0.0661	0.0586
201T	1.17	1.25	1.17	1.06	0.976	1.02	0.991	0.941	0.916	0.909	0.837	0.823	0.777	0.919	0.709	0.385	0.295	0.322	0.355	0.347
NCI-H1944	1.25	1.09	1.04	1.16	0.965	1.08	1.05	0.913	0.954	0.867	0.625	0.573	0.617	0.602	0.494	0.822	0.758	0.857	0.724	0.75
NCI-H2405	1.17	1.05	0.758	1.05	1.02	0.935	0.915	0.52	0.806	0.864	0.93	0.849	0.7	0.852	0.83	1.25	1.09	0.939	0.977	1.07
NCI-H1703	0.393	0.377	0.411	0.399	0.42	0.423	0.364	0.402	0.242	0.324	0.532	0.494	0.483	0.386	0.377					
NCI-H1755	0.934	0.953	0.885	0.937	0.852	0.917	1.05	0.94	0.876	0.917	0.982	0.957	1.03	0.951	0.887	0.451	0.458	0.498	0.452	0.425
